Measurements from patent US20260083122A1, “METHOD AND AGENT FOR INACTIVATING BACTERIA OR VIRUSES, AND ANTIVIRAL BASE MATERIAL USING SAME” (NISSAN MOTOR CO., LTD., priority 2022, published 2026).
Where two headings read alike, the source gives them in different places.

Legend:
[1] = Standard redox potential by cyclic voltammetry; type: physicochemical; details: reference electrode Ag/Ag^+, sweep rate 50 mV/s
Method: The standard redox potential is measured by cyclic voltammetry (CV) under a temperature condition of 25° C. At this time, the measurement is performed by a three-electrode method using a glassy carbon electrode (inner diameter: 3 mm) as a working electrode, a reference electrode (Ag/Ag^+), and a counter electrode (platinum wire), and the sweep rate of the potential is 50 mV/s. It is noted that the hydroxyamine forms of the compounds of the present invention are generally unstable and rapidly oxidized into nitroxyl radical forms. Thus, the value of the standard redox potential measured by the above method is the value between the nitroxyl radical form and the oxoammonium form.
In the cyclic voltammogram shown in FIG. 1, the cyclic voltammogram was stably maintained even after repeating 100 or more cycles of measurement, and thus it is observed that the compound of the present aspect has very high durability as an oxidizing agent.

[2] = biological target: T1, S-RBD-His(WT) (SARS-CoV-2 Spike Protein (RBD)) (Severe acute respiratory syndrome coronavirus 2, UniProt P0DTC2)
[3] = test system: feline coronavirus (FCov (VR-989)); assay: Antiviral effect of AZADO (CPE method; incubation at 37° C.); type: cell-based
ovalbumin (OVA) = biological target: T2, ovalbumin (OVA) (Gallus gallus, UniProt P01012); assay: Degradation activity on ovalbumin (electrophoresis, CBB staining); type: biochemical; details: room temperature for 24 hours
T2 sequence (P01012 1-386): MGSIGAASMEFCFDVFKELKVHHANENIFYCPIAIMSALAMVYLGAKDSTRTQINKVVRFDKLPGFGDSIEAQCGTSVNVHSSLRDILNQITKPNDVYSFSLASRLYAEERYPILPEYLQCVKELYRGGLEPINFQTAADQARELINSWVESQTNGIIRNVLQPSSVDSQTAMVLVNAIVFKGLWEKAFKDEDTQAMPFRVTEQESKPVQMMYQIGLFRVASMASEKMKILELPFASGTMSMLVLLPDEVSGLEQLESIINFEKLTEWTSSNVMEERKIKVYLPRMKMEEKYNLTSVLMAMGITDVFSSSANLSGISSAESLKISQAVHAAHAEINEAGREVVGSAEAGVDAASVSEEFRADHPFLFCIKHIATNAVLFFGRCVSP

[4] = test system: feline coronavirus (FCov (VR-989)); type: cell-based; details: for Positive rate (CPE) / Number of wells when CPE is positive: 3 days culture
[5] = biological target: T1, S-RBD-His(WT) (SARS-CoV-2 Spike Protein (RBD)); remark: listed apart in the source
[6] = test system: feline coronavirus (FCov (VR-989)); assay: Cell viability by WST-8 method in the 25° C. incubation experiment; type: cell-based; details: cells cultured for 3 days after sample addition and medium replacement; virus alone about 50%
[7] = test system: feline coronavirus (FCov (VR-989)); type: cell-based; details: FCoV dilution series incubated with compound at room temperature for 2 hours; CRFK cells, 2 days culture
[8] = test system: Escherichia coli (DH5a strain; AMP+); assay: Measurement of minimum inhibitory concentration (MIC) against Escherichia coli (colony count); type: cell-based; details: for CFU relative value: Comparative Example (0 mM) is 100
Method: First, Escherichia coli (DH5a strain; AMP+) was cultured with shaking in LB medium for 20 hours, and the obtained culture solution was used as an Escherichia coli stock solution. Then, the Escherichia coli stock solution was diluted 1000 times with PBS to obtain a diluted solution. In addition, this diluted solution was used as a comparative example.
On the other hand, AZADO^+NO3^− was added to the diluted solution obtained above to have a final concentration of 1 μM, 10 μM, 100 μM, 1 mM, or 10 mM, respectively, and the obtained mixture was allowed to stand at room temperature for 15 minutes. Thereafter, for the purpose of deactivating AZADO^+NO3^−, the diluted solution was further diluted 10 times using LB medium as a reaction stop solution. Finally, 25 μL of the reaction solution obtained in this manner was applied to LB agar medium, and cultured at 37° C. for 1 day. Then, the number of colonies on the agar medium after culture was counted, and the colony forming unit (CFU/mL) per mL was calculated. In addition, the “CFU relative value” described in Table 3 is a relative value when the value of the colony forming unit of Comparative Example is 100.

[9] = test system: Staphylococcus aureus subsp. aureus NBRC 12732
[10] = test system: Penicillium citrinum (NBRC 6352)
[11] = test system: Escherichia coli ATCC 43895, serotype 0157:H7

## 1,3-dimethyl AZADO
[1]
  standard redox potential (E^0@25° C.) between the nitroxyl radical form and the oxoammonium form: 136 mV

## CC12CC3CC(CC(C3)N1[O])C2 [1-methyl AZADO]
[1]
  standard redox potential (E^0@25° C.) between the nitroxyl radical form and the oxoammonium form: 186 mV

## CC(=O)NC1CC(C)(C)[N+](=O)C(C)(C)C1.F[B-](F)(F)F [4-AcNH-TEMPO^+BF4^−]
[2]
  activity compared among the compounds (peak shift, MFI): almost equally strong
  antiviral activity (MFI) on extended treatment time: showed higher antiviral activity

## [O]N1C2CC3CC(C2)CC1C3 [AZADO, 2-azaadamantane-N-oxyl]
[1]
  standard redox potential (E^0@25° C.) between the nitroxyl radical form and the oxoammonium form: 236 mV

## O=[N+]([O-])[O-].O=[N+]1C2CC3CC(C2)CC1C3 [AZADO-Oxo]
[3]; AZADO-Oxo 2 mM added, 37° C. 2 hours (no AZADO-Oxo: 5.2)
  logTCID50: 2.4
[3]; AZADO-Oxo 2 mM added, 37° C. 2 hours (no AZADO-Oxo: 142262)
  TCID50: 253
[3]; AZADO-Oxo 2 mM, 37° C. 2 hours
  viral load reduced to (fraction): about 1/1000
[3]; AZADO-Oxo 2 mM, 37° C. 2 hours, 5.2-2.4
  Δ log TCID50: 2.8
[3]; AZADO-Oxo 2 mM, 37° C. 2 hours, viral load 10^−1
  Positive rate (CPE): 0%
[3]; AZADO-Oxo 2 mM, 37° C. 2 hours, viral load 10^−1, 8 wells
  Number of wells when CPE is positive: 0
[3]; AZADO-Oxo 2 mM, 37° C. 2 hours, viral load 10^−2
  Positive rate (CPE): 0%
[3]; AZADO-Oxo 2 mM, 37° C. 2 hours, viral load 10^−2, 8 wells
  Number of wells when CPE is positive: 0
[3]; AZADO-Oxo 2 mM, 37° C. 2 hours, viral load 10^−3
  Positive rate (CPE): 0%
[3]; AZADO-Oxo 2 mM, 37° C. 2 hours, viral load 10^−3, 8 wells
  Number of wells when CPE is positive: 0
[3]; AZADO-Oxo 2 mM, 37° C. 2 hours, viral load 10^−4
  Positive rate (CPE): 0%
[3]; AZADO-Oxo 2 mM, 37° C. 2 hours, viral load 10^−4, 8 wells
  Number of wells when CPE is positive: 0
[3]; AZADO-Oxo 2 mM, 37° C. 2 hours, viral load 10^−5
  Positive rate (CPE): 0%
[3]; AZADO-Oxo 2 mM, 37° C. 2 hours, viral load 10^−5, 7 wells
  Number of wells when CPE is positive: 0
[3]; AZADO-Oxo 2 mM, 37° C. 2 hours, viral load (relative value) 1
  Positive rate (CPE): 0%
[3]; AZADO-Oxo 2 mM, 37° C. 2 hours, viral load (relative value) 1, 7 wells
  Number of wells when CPE is positive: 0
Ovalbumin (OVA); 1 mg catalyst support or 3 μL of 100 mM AZADO-Oxo
  band of OVA in supernatant (CBB staining): almost eliminated
Ovalbumin (OVA); 2.5 μL of 100 mM AZADO-Oxo, with or without 2.5 μL of 100 mM cocatalyst
  band of OVA in supernatant (CBB staining), unsupported AZADO: elimination of a band of OVA (protein degradation activity) was confirmed
[4]; 48 hours after the addition of the sample solution, 25° C. incubation
  change of cell form to a round shape by virus (microscope): this form change is suppressed
[4]; AZADO-Oxo added, 25° C. incubation (no AZADO-Oxo: 5.2)
  logTCID50: 2.4
[4]; AZADO-Oxo added, 25° C. incubation (no AZADO-Oxo: 142262)
  TCID50: 253
[4]; AZADO-Oxo added, 25° C. incubation, viral load 10^−1
  Positive rate (CPE): 0%
[4]; AZADO-Oxo added, 25° C. incubation, viral load 10^−1, 8 wells
  Number of wells when CPE is positive: 0
[4]; AZADO-Oxo added, 25° C. incubation, viral load 10^−2
  Positive rate (CPE): 0%
[4]; AZADO-Oxo added, 25° C. incubation, viral load 10^−2, 8 wells
  Number of wells when CPE is positive: 0
[4]; AZADO-Oxo added, 25° C. incubation, viral load 10^−3
  Positive rate (CPE): 0%
[4]; AZADO-Oxo added, 25° C. incubation, viral load 10^−3, 8 wells
  Number of wells when CPE is positive: 0
[4]; AZADO-Oxo added, 25° C. incubation, viral load 10^−4
  Positive rate (CPE): 0%
[4]; AZADO-Oxo added, 25° C. incubation, viral load 10^−4, 8 wells
  Number of wells when CPE is positive: 0
[4]; AZADO-Oxo added, 25° C. incubation, viral load 10^−5
  Positive rate (CPE): 0%
[4]; AZADO-Oxo added, 25° C. incubation, viral load 10^−5, 7 wells
  Number of wells when CPE is positive: 0
[4]; AZADO-Oxo added, 25° C. incubation, viral load (relative value) 1
  Positive rate (CPE): 0%
[4]; AZADO-Oxo added, 25° C. incubation, viral load (relative value) 1, 7 wells
  Number of wells when CPE is positive: 0
[5]
  shift of fluorescence peak (binding amount between spike protein and ACE2): shifted to the left depending on the amount of AZADO-Oxo added
[6]
  cell viability (WST-8 method): recovered the cell viability to the same level as the blank
[7]
  cell viability (WST-8 method): recovery of cell viability decreased by virus addition was observed
[8]; Escherichia coli, 15 minutes contact
  final concentration at which a remarkable inactivation effect was observed: ≥ 100 PM
[8]; final concentration 0.001 mM (0 mM: 1.21 × 10^8)
  colony forming unit: 1.28 × 10^8 CFU/mL
[8]; final concentration 0.001 mM
  CFU relative value: 105
[8]; final concentration 0.001 mM, room temperature 15 minutes (0 mM: 303)
  Number of colonies: 319
[8]; final concentration 0.01 mM
  colony forming unit: 1.25 × 10^8 CFU/mL
  CFU relative value: 103
[8]; final concentration 0.01 mM, room temperature 15 minutes
  Number of colonies: 313
[8]; final concentration 0.1 mM
  colony forming unit: 6.04 × 10^7 CFU/mL
  CFU relative value: 50
[8]; final concentration 0.1 mM, room temperature 15 minutes
  Number of colonies: 151
[8]; final concentration 1 mM
  colony forming unit: 0 CFU/mL
  CFU relative value: 0
[8]; final concentration 1 mM or more
  sterilization effect: ≥ 99%
[8]; final concentration 1 mM, room temperature 15 minutes
  Number of colonies: 0
[8]; final concentration 10 mM
  colony forming unit: 0 CFU/mL
  CFU relative value: 0
[8]; final concentration 10 mM, room temperature 15 minutes
  Number of colonies: 0

## F[B-](F)(F)F.O=[N+]1C2CC3CC(C2)CC1C3 [AZADO^+BF4^−]
[2]
  activity compared among the compounds (peak shift, MFI): almost equally strong
  antiviral activity (MFI) on extended treatment time: showed higher antiviral activity

## CC1(C)CCCC(C)(C)N1[O] [TEMPO, 2,2,6,6-tetramethylpiperidine-N-oxyl]
[1]
  standard redox potential (E^0@25° C.) between the nitroxyl radical form and the oxoammonium form: 294 mV

## O=[N+]([O-])[O-].[Ag+] [silver nitrate, reference compound]
[7]
  cell viability (WST-8 method): such a phenomenon was not observed

## copper(II) nitrate
[9]
  viable cell ratio: did not decrease after 5 minutes from the addition
[10]
  viable cell ratio: started to increase after 5 minutes from the addition
[11]
  viable cell ratio: did not decrease to 0%
